Results taken from ChEMBL document CHEMBL4138123, “Design, synthesis and biological evaluation of novel pyrazolochalcones as potential modulators of PI3K/Akt/mTOR pathway and inducers of apoptosis in breast cancer cells” (Eur J Med Chem, 2017).

Assays:
Assay type in all cases: functional
[1] = tested on: HCC 2998; assay: Cytotoxicity against human HCC2998 cells assessed as growth inhibition after 48 hrs by sulforhodamine B assay; conditions: HCC 2998, 48 h
[2] = tested on: SW-620; assay: Cytotoxicity against human SW620 cells assessed as growth inhibition after 48 hrs by sulforhodamine B assay; conditions: SW-620, 48 h
[3] = tested on: LOX IMVI; assay: Cytotoxicity against human LOXIMVI cells assessed as growth inhibition after 48 hrs by sulforhodamine B assay
[4] = tested on: MDA-MB-435; assay: Cytotoxicity against human MDA-MB-435 cells assessed as growth inhibition after 48 hrs by sulforhodamine B assay; conditions: MDA-MB-435, 48 h
[5] = tested on: NCI/ADR-RES; assay: Cytotoxicity against human NCI/ADR-RES cells assessed as growth inhibition after 48 hrs by sulforhodamine B assay
[6] = tested on: A498; assay: Cytotoxicity against human A498 cells assessed as growth inhibition after 48 hrs by sulforhodamine B assay; conditions: A498, 48 h
[7] = tested on: SN12C; assay: Cytotoxicity against human SN12C cells assessed as growth inhibition after 48 hrs by sulforhodamine B assay
[8] = tested on: MCF7; assay: Cytotoxicity against human MCF7 cells assessed as growth inhibition after 48 hrs by sulforhodamine B assay; conditions: MCF7, 48 h
[9] = tested on: Hs-578T; assay: Cytotoxicity against human Hs 578T cells assessed as growth inhibition after 48 hrs by sulforhodamine B assay
[10] = tested on: T47D; assay: Cytotoxicity against human T47D cells assessed as growth inhibition after 48 hrs by sulforhodamine B assay
[11] = tested on: OVCAR-4; assay: Cytotoxicity against human OVCAR4 cells assessed as cell growth at 0.01 uM after 48 hrs by sulforhodamine B assay relative to control; conditions: OVCAR-4, 48 h, read-out: Activity
[12] = tested on: HCT-116; assay: Cytotoxicity against human HCT116 cells assessed as cell growth at 0.01 uM after 48 hrs by sulforhodamine B assay relative to control; conditions: HCT-116, 48 h, read-out: Activity
[13] = tested on: HOP-62; assay: Cytotoxicity against human HOP62 cells assessed as cell growth at 0.01 uM after 48 hrs by sulforhodamine B assay relative to control; conditions: HOP-62, 48 h, read-out: Activity
[14] = tested on: SN12C; assay: Cytotoxicity against human SN12C cells assessed as cell growth at 0.01 uM after 48 hrs by sulforhodamine B assay relative to control; conditions: read-out: Activity
[15] = tested on: MDA-MB-231; assay: Cytotoxicity against human MDA-MB-231 cells assessed as cell growth at 0.01 uM after 48 hrs by sulforhodamine B assay relative to control; conditions: MDA-MB-231, 48 h, read-out: Activity
[16] = tested on: CCRF-CEM; assay: Cytotoxicity against human CCRF-CEM cells assessed as cell growth at 0.1 uM after 48 hrs by sulforhodamine B assay relative to control; conditions: read-out: Activity
[17] = tested on: NCI-H322M; assay: Cytotoxicity against human NCI-H322M cells assessed as cell growth at 0.1 uM after 48 hrs by sulforhodamine B assay relative to control; conditions: read-out: Activity
[18] = tested on: SNB-19; assay: Cytotoxicity against human SNB19 cells assessed as cell growth at 0.1 uM after 48 hrs by sulforhodamine B assay relative to control; conditions: SNB-19, 48 h, read-out: Activity
[19] = tested on: A498; assay: Cytotoxicity against human A498 cells assessed as cell growth at 0.1 uM after 48 hrs by sulforhodamine B assay relative to control; conditions: A498, 48 h, read-out: Activity
[20] = tested on: HOP-62; assay: Cytotoxicity against human HOP62 cells assessed as cell growth at 1 uM after 48 hrs by sulforhodamine B assay relative to control; conditions: HOP-62, 48 h, read-out: Activity
[21] = tested on: NCI-H226; assay: Cytotoxicity against human NCI-H226 cells assessed as cell growth at 1 uM after 48 hrs by sulforhodamine B assay relative to control; conditions: NCI-H226, 48 h, read-out: Activity
[22] = tested on: HCC 2998; assay: Cytotoxicity against human HCC2998 cells assessed as cell growth at 1 uM after 48 hrs by sulforhodamine B assay relative to control; conditions: HCC 2998, 48 h, read-out: Activity
[23] = tested on: OVCAR-5; assay: Cytotoxicity against human OVCAR5 cells assessed as cell growth at 1 uM after 48 hrs by sulforhodamine B assay relative to control; conditions: OVCAR-5, 48 h, read-out: Activity
[24] = tested on: NCI/ADR-RES; assay: Cytotoxicity against human NCI/ADR-RES cells assessed as cell growth at 1 uM after 48 hrs by sulforhodamine B assay relative to control; conditions: read-out: Activity
[25] = tested on: PC-3; assay: Cytotoxicity against human PC3 cells assessed as cell growth at 1 uM after 48 hrs by sulforhodamine B assay relative to control; conditions: PC-3, 48 h, read-out: Activity
[26] = tested on: T47D; assay: Cytotoxicity against human T47D cells assessed as cell growth at 1 uM after 48 hrs by sulforhodamine B assay relative to control; conditions: read-out: Activity
[27] = tested on: HCT-116; assay: Cytotoxicity against human HCT116 cells assessed as cell growth at 10 uM after 48 hrs by sulforhodamine B assay relative to control; conditions: HCT-116, 48 h, read-out: Activity
[28] = tested on: HCT-15; assay: Cytotoxicity against human HCT15 cells assessed as cell growth at 10 uM after 48 hrs by sulforhodamine B assay relative to control; conditions: HCT-15, 48 h, read-out: Activity
[29] = tested on: SW-620; assay: Cytotoxicity against human SW620 cells assessed as cell growth at 10 uM after 48 hrs by sulforhodamine B assay relative to control; conditions: SW-620, 48 h, read-out: Activity
[30] = tested on: SK-MEL-5; assay: Cytotoxicity against human SK-MEL-5 cells assessed as cell growth at 10 uM after 48 hrs by sulforhodamine B assay relative to control; conditions: SK-MEL-5, 48 h, read-out: Activity
[31] = tested on: 786-0; assay: Cytotoxicity against human 786-0 cells assessed as cell growth at 10 uM after 48 hrs by sulforhodamine B assay relative to control; conditions: 786-0, 48 h, read-out: Activity
[32] = tested on: NCI-H322M; assay: Cytotoxicity against human NCI-H322M cells assessed as cell growth at 100 uM after 48 hrs by sulforhodamine B assay relative to control; conditions: read-out: Activity
[33] = tested on: HCT-15; assay: Cytotoxicity against human HCT15 cells assessed as cell growth at 100 uM after 48 hrs by sulforhodamine B assay relative to control; conditions: HCT-15, 48 h, read-out: Activity
[34] = tested on: UACC-62; assay: Cytotoxicity against human UACC62 cells assessed as cell growth at 100 uM after 48 hrs by sulforhodamine B assay relative to control; conditions: UACC-62, 48 h, read-out: Activity
[35] = tested on: A498; assay: Cytotoxicity against human A498 cells assessed as cell growth at 100 uM after 48 hrs by sulforhodamine B assay relative to control; conditions: A498, 48 h, read-out: Activity
[36] = tested on: MCF7; assay: Cytotoxicity against human MCF7 cells assessed as cell growth at 100 uM after 48 hrs by sulforhodamine B assay relative to control; conditions: MCF7, 48 h, read-out: Activity
[37] = tested on: Hs-578T; assay: Cytotoxicity against human Hs 578T cells assessed as cell growth at 100 uM after 48 hrs by sulforhodamine B assay relative to control; conditions: read-out: Activity

COc1cc(-c2cc(/C=C/C(=O)c3ccc4c(c3)OCO4)[nH]n2)cc(OC)c1OC
LC50 [1]: 6.43 µM
TGI [1]: 3.54 µM
LC50 (lethal concentration, 50% net cell kill) [2]: > 100 µM
LC50 [3]: 7.83 µM
TGI [3]: 3.78 µM
LC50 [4]: > 100 µM
LC50 [5]: > 100 µM
TGI [5]: > 100 µM
LC50 [6]: > 100 µM
TGI [6]: 15.4 µM
LC50 [7]: > 100 µM
TGI [7]: > 100 µM
LC50 [8]: > 100 µM
LC50 [9]: > 100 µM
TGI [9]: 78.7 µM
LC50 [10]: > 100 µM
TGI [10]: 17 µM
growth at 0.01 µM [11]: 91%
growth at 0.01 µM [12]: 104%
growth at 0.01 µM [13]: 101%
growth at 0.01 µM [14]: 97%
growth at 0.01 µM [15]: 101%
growth at 0.1 µM [16]: 90%
growth at 0.1 µM [17]: 95%
growth at 0.1 µM [18]: 88%
growth at 0.1 µM [19]: 79%
growth at 1 µM [20]: 95%
growth at 1 µM [21]: 89%
growth at 1 µM [22]: 106%
growth at 1 µM [23]: 88%
growth at 1 µM [24]: 96%
growth at 1 µM [25]: 86%
growth at 1 µM [26]: 79%
growth at 10 µM [27]: -60%
growth at 10 µM [28]: -13%
growth at 10 µM [29]: -9%
growth at 10 µM [30]: 26%
growth at 10 µM [31]: -30%
growth at 100 µM [32]: -9%
growth at 100 µM [33]: -10%
growth at 100 µM [34]: 22%
growth at 100 µM [35]: -38%
growth at 100 µM [36]: 3%
growth at 100 µM [37]: -2%

COc1ccc(-c2cc(/C=C/C(=O)c3ccc(N)cc3)[nH]n2)cc1OC
GI50 [1]: 2.02 µM
LC50 [1]: 7.24 µM
TGI [1]: 3.83 µM
GI50 [2]: 2.5 µM
LC50 (lethal concentration, 50% net cell kill) [2]: 82.9 µM
TGI [2]: 6.94 µM
GI50 [3]: 1.92 µM
LC50 [3]: 7.98 µM
TGI [3]: 3.91 µM
GI50 [4]: 2.53 µM
LC50 [4]: 40.8 µM
TGI [4]: 7.23 µM
GI50 [5]: 6.21 µM
LC50 [5]: > 100 µM
TGI [5]: > 100 µM
GI50 [6]: 2.37 µM
LC50 [6]: 26.2 µM
TGI [6]: 7.09 µM
GI50 [7]: 3.53 µM
LC50 [7]: 41.3 µM
TGI [7]: 13.7 µM
GI50 [8]: 2.28 µM
LC50 [8]: 71.2 µM
TGI [8]: 8.48 µM
GI50 [9]: 6.57 µM
LC50 [9]: > 100 µM
TGI [9]: > 100 µM
GI50 [10]: 4.25 µM
LC50 [10]: > 100 µM
TGI [10]: 26 µM
growth at 0.01 µM [11]: 85%
growth at 0.01 µM [12]: 96%
growth at 0.01 µM [13]: 83%
growth at 0.01 µM [14]: 101%
growth at 0.01 µM [15]: 113%
growth at 0.1 µM [16]: 97%
growth at 0.1 µM [17]: 102%
growth at 0.1 µM [18]: 90%
growth at 0.1 µM [19]: 80%
growth at 1 µM [20]: 92%
growth at 1 µM [21]: 86%
growth at 1 µM [22]: 105%
growth at 1 µM [23]: 94%
growth at 1 µM [24]: 99%
growth at 1 µM [25]: 89%
growth at 1 µM [26]: 87%
growth at 10 µM [27]: -73%
growth at 10 µM [28]: -27%
growth at 10 µM [29]: -18%
growth at 10 µM [30]: 6%
growth at 10 µM [31]: -48%
growth at 100 µM [32]: -88%
growth at 100 µM [33]: -71%
growth at 100 µM [34]: -86%
growth at 100 µM [35]: -98%
growth at 100 µM [36]: -58%
growth at 100 µM [37]: 4%
